Experimental data as given in patent US9556165B2 (priority 2012, dated 2017).
Converted amounts (≈) assume the structure as drawn. Where two headings read alike, the source gives them in different places.

Tests used:
Assay type in all cases: cell-based
S. aureus 133 = assay: MIC determination, broth microdilution (CLSI)
C. perfringens DSM756 = assay: microbe, parasite or virus in culture; conditions: Clostridium perfringens, DSM756, read-out: MIC strain 16 (C. perfringens DSM756), strain 16; broth microdilution
[1] = test system: P. aeruginosa 2297-con (AmpC derepressed); assay: MIC determination, broth microdilution (CLSI); conditions: Pseudomonas aeruginosa, read-out: strain 8 MIC, strain 8
H. influenzae ATCC 49247 = assay: MIC determination, broth microdilution (CLSI); conditions: Haemophilus influenzae, ATCC49247, strain 12; broth microdilution; read-out: MIC strain 12 (H. influenzae ATCC 49247)
B. fragilis 6688 = assay: MIC determination, broth microdilution (CLSI); conditions: Bacteroides fragilis, 6688, strain 15; broth microdilution; read-out: MIC strain 15 (B. fragilis 6688)
M. morganii 126/3048 = assay: MIC determination, broth microdilution (CLSI); conditions: Morganella morganii, 126/3048, strain 5
E. coli ATCC25922 = assay: MIC determination, broth microdilution (CLSI); conditions: Escherichia coli, ATCC25922, strain 1
E. coli J62 = assay: MIC determination, broth microdilution (CLSI); conditions: Escherichia coli, J62, strain 17; broth microdilution; read-out: MIC strain 17 (E. coli J62)
S. pneumoniae 113 = assay: MIC determination, broth microdilution (CLSI); conditions: Streptococcus pneumoniae, 113, strain 13; broth microdilution; read-out: MIC strain 13 (S. pneumoniae 113)
P. aeruginosa PAO1 = assay: MIC determination, broth microdilution (CLSI); conditions: Pseudomonas aeruginosa, PAO1, strain 6
[2] = test system: P. aeruginosa 2297 (AmpC wt); assay: MIC determination, broth microdilution (CLSI); conditions: Pseudomonas aeruginosa, strain 7
A. baumannii ATCC15308 = assay: MIC determination, broth microdilution (CLSI); conditions: Acinetobacter baumannii, ATCC15308, strain 9
C. freundii K21/3034 = assay: MIC determination, broth microdilution (CLSI); conditions: Citrobacter freundii, K21/3034, strain 4
S. maltophilia ICB7569 = assay: MIC determination, broth microdilution (CLSI); conditions: Stenotrophomonas maltophilia, ICB7569, strain 10
E. coli J62-TEM-3 = assay: MIC determination, broth microdilution (CLSI); conditions: Escherichia coli, J62TEM3, read-out: MIC strain 18 (E. coli J62-TEM-3), strain 18; broth microdilution
Bacteria = assay: MIC determination in combination with β-lactamase inhibitors (constant 4 μg/mL)
E. cloacae 34654 = assay: MIC determination, broth microdilution (CLSI); conditions: Enterobacter cloacae, 34654, strain 3
K. pneumoniae 60 = assay: MIC determination, broth microdilution (CLSI); conditions: Klebsiella pneumoniae, 60, strain 2
[3] = Staphylococcus aureus, 133, strain 11, read-out: strain 11 MIC
[4] = Staphylococcus aureus, 133, strain 14, broth microdilution, read-out: MIC strain 14 (S. aureus 133)

C[C@H]1[C@H](NC(=O)/C(=N\OCCOc2ccc(C(=N)N)cc2)c2nc(N)sc2Cl)C(=O)N1S(=O)(=O)O [Example 61, (2S,3S)-3-{[(2Z)-2-(2-Amino-5-chloro-1,3-thiazol-4-yl)-2-{[2-(4-carbamimidoylphenoxy)ethoxy]imino}acetyl]amino}-2-methyl-4-oxoazetidine-1-sulfonic acid]
MIC (S. aureus 133; [3]): ≤ 0.063 µg/mL | MIC (S. aureus 133; [4]): 8 µg/mL (≈ 14.7 µM) | MIC (C. perfringens DSM756): 8 µg/mL (≈ 14.7 µM) | MIC [1]: 16 µg/mL (≈ 29.3 µM) | MIC (H. influenzae ATCC 49247): 0.25 µg/mL (≈ 0.458 µM) | MIC (B. fragilis 6688): 8 µg/mL (≈ 14.7 µM) | MIC (M. morganii 126/3048): 0.5 µg/mL (≈ 0.916 µM) | MIC (E. coli ATCC25922): 2 µg/mL (≈ 3.66 µM) | MIC (E. coli J62): 2 µg/mL (≈ 3.66 µM) | MIC (S. pneumoniae 113): ≤ 0.063 µg/mL | MIC (P. aeruginosa PAO1): 2 µg/mL (≈ 3.66 µM) | MIC [2]: 2 µg/mL (≈ 3.66 µM) | MIC (A. baumannii ATCC15308): 2 µg/mL (≈ 3.66 µM) | MIC (C. freundii K21/3034): 1 µg/mL (≈ 1.83 µM) | MIC (S. maltophilia ICB7569): 16 µg/mL (≈ 29.3 µM) | MIC (E. coli J62-TEM-3): 8 µg/mL (≈ 14.7 µM) | MIC strain 19 (E. coli J62-TEM-3 + 4 μg/mL clavulanic acid) (Bacteria): 2 µg/mL | MIC strain 20 (E. coli J62-TEM-3 + 4 μg/mL sulbactam) (Bacteria): 2 µg/mL | MIC strain 21 (E. coli J62-TEM-3 + 4 μg/mL tazobactam) (Bacteria): 2 µg/mL | MIC (E. cloacae 34654): 2 µg/mL (≈ 3.66 µM) | MIC (K. pneumoniae 60): 2 µg/mL (≈ 3.66 µM)

CC1(C)[C@H](NC(=O)/C(=N\OCCOc2ccc(C(=N)NCC(=O)O)cc2)c2csc(N)n2)C(=O)N1OS(=O)(=O)O [Example 73, N-[{4-[2-({[(1Z)-1-(2-Amino-1,3-thiazol-4-yl)-2-{[(3S)-2,2-dimethyl-4-oxo-1-(sulfo-oxy)azetidin-3-yl]amino}-2-oxoethylidene]amino}oxy)ethoxy]phenyl}(imino)methyl]glycine]
MIC (S. aureus 133; [3]): ≤ 0.063 µg/mL | MIC (S. aureus 133; [4]): 32 µg/mL (≈ 53.4 µM) | MIC (C. perfringens DSM756): 4 µg/mL (≈ 6.67 µM) | MIC [1]: 32 µg/mL (≈ 53.4 µM) | MIC (H. influenzae ATCC 49247): 0.25 µg/mL (≈ 0.417 µM) | MIC (B. fragilis 6688): 8 µg/mL (≈ 13.3 µM) | MIC (M. morganii 126/3048): 0.5 µg/mL (≈ 0.834 µM) | MIC (E. coli ATCC25922): 0.5 µg/mL (≈ 0.834 µM) | MIC (E. coli J62): 1 µg/mL (≈ 1.67 µM) | MIC (S. pneumoniae 113): ≤ 0.063 µg/mL | MIC (P. aeruginosa PAO1): 16 µg/mL (≈ 26.7 µM) | MIC [2]: 32 µg/mL (≈ 53.4 µM) | MIC (A. baumannii ATCC15308): 16 µg/mL (≈ 26.7 µM) | MIC (C. freundii K21/3034): 0.5 µg/mL (≈ 0.834 µM) | MIC (S. maltophilia ICB7569): 32 µg/mL (≈ 53.4 µM) | MIC (E. coli J62-TEM-3): 32 µg/mL (≈ 53.4 µM) | MIC strain 19 (E. coli J62-TEM-3 + 4 μg/mL clavulanic acid) (Bacteria): 0.5 µg/mL | MIC strain 20 (E. coli J62-TEM-3 + 4 μg/mL sulbactam) (Bacteria): 0.5 µg/mL | MIC strain 21 (E. coli J62-TEM-3 + 4 μg/mL tazobactam) (Bacteria): 1 µg/mL | MIC (E. cloacae 34654): 0.5 µg/mL (≈ 0.834 µM) | MIC (K. pneumoniae 60): 0.5 µg/mL (≈ 0.834 µM)

Cc1sc(C(=N)N)nc1OCCO/N=C(\C(=O)N[C@@H]1C(=O)N(OS(=O)(=O)O)C1(C)C)c1csc(N)n1 [Example 74, (2Z)-2-(2-Amino-1,3-thiazol-4-yl)-2-({2-[(2-carbamimidoyl-5-methyl-1,3-thiazol-4-yl)oxy]ethoxy}imino)-N-[(3S)-2,2-dimethyl-4-oxo-1-(sulfooxy)azetidin-3-yl]ethanamide]
MIC (S. aureus 133; [3]): ≤ 0.063 µg/mL | MIC (S. aureus 133; [4]): 32 µg/mL (≈ 56.9 µM) | MIC (C. perfringens DSM756): 2 µg/mL (≈ 3.55 µM) | MIC [1]: 32 µg/mL (≈ 56.9 µM) | MIC (H. influenzae ATCC 49247): 0.25 µg/mL (≈ 0.444 µM) | MIC (B. fragilis 6688): 2 µg/mL (≈ 3.55 µM) | MIC (M. morganii 126/3048): 1 µg/mL (≈ 1.78 µM) | MIC (E. coli ATCC25922): 1 µg/mL (≈ 1.78 µM) | MIC (E. coli J62): 4 µg/mL (≈ 7.11 µM) | MIC (S. pneumoniae 113): ≤ 0.063 µg/mL | MIC (P. aeruginosa PAO1): 16 µg/mL (≈ 28.4 µM) | MIC [2]: 32 µg/mL (≈ 56.9 µM) | MIC (A. baumannii ATCC15308): 2 µg/mL (≈ 3.55 µM) | MIC (C. freundii K21/3034): 1 µg/mL (≈ 1.78 µM) | MIC (S. maltophilia ICB7569): 16 µg/mL (≈ 28.4 µM) | MIC (E. coli J62-TEM-3): 16 µg/mL (≈ 28.4 µM) | MIC strain 19 (E. coli J62-TEM-3 + 4 μg/mL clavulanic acid) (Bacteria): 1 µg/mL | MIC strain 20 (E. coli J62-TEM-3 + 4 μg/mL sulbactam) (Bacteria): 1 µg/mL | MIC strain 21 (E. coli J62-TEM-3 + 4 μg/mL tazobactam) (Bacteria): 2 µg/mL | MIC (E. cloacae 34654): 4 µg/mL (≈ 7.11 µM) | MIC (K. pneumoniae 60): 2 µg/mL (≈ 3.55 µM)

CC1(C)[C@H](NC(=O)/C(=N\OCCOc2ccc(C(=N)NCc3ccccn3)cc2)c2csc(N)n2)C(=O)N1OS(=O)(=O)O [Example 76, (2Z)-2-(2-Amino-1,3-thiazol-4-yl)-N-[(3S)-2,2-dimethyl-4-oxo-1-(sulfooxy)azetidin-3-yl]-2-[(2-{4-[N-(pyridin-2-ylmethyl)carbamimidoyl]phenoxy}ethoxy)imino]ethanamide]
MIC (S. aureus 133; [3]): ≤ 0.063 µg/mL | MIC (S. aureus 133; [4]): 4 µg/mL (≈ 6.32 µM) | MIC (C. perfringens DSM756): 2 µg/mL (≈ 3.16 µM) | MIC [1]: 32 µg/mL (≈ 50.6 µM) | MIC (H. influenzae ATCC 49247): 0.25 µg/mL (≈ 0.395 µM) | MIC (B. fragilis 6688): 4 µg/mL (≈ 6.32 µM) | MIC (M. morganii 126/3048): 1 µg/mL (≈ 1.58 µM) | MIC (E. coli ATCC25922): 0.5 µg/mL (≈ 0.79 µM) | MIC (E. coli J62): 0.5 µg/mL (≈ 0.79 µM) | MIC (S. pneumoniae 113): ≤ 0.063 µg/mL | MIC (P. aeruginosa PAO1): 16 µg/mL (≈ 25.3 µM) | MIC [2]: 16 µg/mL (≈ 25.3 µM) | MIC (A. baumannii ATCC15308): 4 µg/mL (≈ 6.32 µM) | MIC (C. freundii K21/3034): 0.5 µg/mL (≈ 0.79 µM) | MIC (S. maltophilia ICB7569): 16 µg/mL (≈ 25.3 µM) | MIC (E. coli J62-TEM-3): 8 µg/mL (≈ 12.6 µM) | MIC strain 19 (E. coli J62-TEM-3 + 4 μg/mL clavulanic acid) (Bacteria): 0.5 µg/mL | MIC strain 20 (E. coli J62-TEM-3 + 4 μg/mL sulbactam) (Bacteria): 0.5 µg/mL | MIC strain 21 (E. coli J62-TEM-3 + 4 μg/mL tazobactam) (Bacteria): 0.5 µg/mL | MIC (E. cloacae 34654): 1 µg/mL (≈ 1.58 µM) | MIC (K. pneumoniae 60): 0.5 µg/mL (≈ 0.79 µM)
